These results are taken from paper PMC7187334 (Clinical Pharmacology in Drug Development, 2019).

Broadly, the Cmax is the highest concentration seen after dosing.

One series has as its system healthy volunteers. Put plainly: Phase 1 crossover study: safety and tolerability (adverse events). It is filed as in vivo, human. The note with it: rosuvastatin 10 mg, fasted, n = 12. The method, then: Each participant received 5 single‐dose oral study treatments (A‐E), with a minimum washout period of 7 days between each treatment period.
The safety set included all participants who received treatment in the study and for whom any postdose safety data were available. Safety was assessed throughout the study by monitoring adverse events, vital signs (systolic and diastolic blood pressure, pulse rate, and body temperature), and electrocardiographic parameters and by conducting physical examinations and laboratory assessments (hematology, blood chemistry, and urinalysis).

Details of series [1]: method as in PMID 15116058. Particulars: coadministered with gemfibrozil; cited from earlier work.
Series [2] can be described thus: Phase 1 crossover study: rosuvastatin plasma pharmacokinetics. Particulars: for AUC(0-inf) / half-life / AUC(0-t) / Cmax: human, plasma, oral, 10 mg. It is filed as in vivo, human. The method, then: The primary objective was to evaluate the pharmacokinetics of oral rosuvastatin when administered alone and in combination with oral AZD5718. […] Each participant received 5 single-dose oral study treatments (A-E), with a minimum washout period of 7 days between each treatment period. Participants were randomly assigned to treatments in the order A, B, C, D, E or B, A, C, D, E. Treatments were: […] […] Participants fasted for at least 10 hours before treatment and for at least 4 hours after treatment. Participants receiving treatment E consumed a high-fat breakfast 30 minutes before treatment. Water was permitted as desired except within 1 hour of administration. […] Doses were taken with 240 mL of water. […] At a minimum, each analytical run included a calibration curve, a matrix blank, a control zero sample (matrix blank containing internal standard), a reagent blank, and duplicate quality control samples at 3 concentrations within the calibration range. […] Both assessments were well within the acceptance criteria. […] The pharmacokinetic analysis set for rosuvastatin included all participants who received both rosuvastatin treatments. […] Statistical analyses were performed by […] using SAS version 9.4. Rosuvastatin pharmacokinetics were analyzed using a mixed-effects model, with log-transformed AUC, AUC0-last, and Cmax as the response variables; treatment sequence, period, and treatment as fixed effects; and participant nested within treatment sequence as a random effect. […] LS mean differences and 90%CIs for the effect of formulation or food for log-transformed variables were back transformed to geometric mean ratios and presented as percentages with 90% CIs.

The test system of series [3] is patients with acute coronary syndrome. Also noted: method as in PMID 20190281. The note with it: cited from earlier work.
The subject of series [4] is patients with coronary artery disease. Also noted: method as in earlier work. Particulars: cited from earlier work.
For series [5], the system named is patients receiving statins. Also on record: method as in PMID 28845751. The note with it: cited from earlier work.
Series [6] deals with patients with coronary artery disease. Also noted: method as in PMID 28834471. Particulars: cited from earlier work.

Where two headings read alike, the source gives them in different places.

`CC(C)c1nc(N(C)S(C)(=O)=O)nc(-c2ccc(F)cc2)c1/C=C/[C@@H](O)C[C@@H](O)CC(=O)O` [Rosuvastatin, rosuvastatin]: in the series with healthy volunteers, the “Participants with influenza-like illness” value is 0 n (%). Further, the “Increase in rosuvastatin AUC” value in series [1] is 2 fold. For the same molecule, the “Increase in rosuvastatin Cmax” value in series [1] was 2 fold; in series [2] (coadministration with AZD5718 tablets vs alone) it was “about 25%”. Also, the “Rosuvastatin AUC0-inf (relative bioavailability), ratio of geometric LS means” value in series [2] (coadministered with AZD5718 200 mg vs alone, 90% CI 86%-116%) worked out at 100%. The “Rosuvastatin AUC0-last, ratio of geometric LS means” value in series [2] (coadministered with AZD5718 200 mg vs alone, 90% CI 87%-106%) is 96%. Besides, the “Rosuvastatin Cmax, ratio of geometric LS means” value in series [2] (coadministered with AZD5718 200 mg vs alone, 90% CI 107%-146%) was determined as 125%. Moreover, the AUC(0-inf) was 45.3 ng·h/mL in series [2] (rosuvastatin 10 mg alone, fasted, n = 9, read-out: Rosuvastatin AUC0-inf, arithmetic mean (SD)); 41 ng·h/mL in series [2] (rosuvastatin 10 mg alone, fasted, n = 9, read-out: Rosuvastatin AUC0-inf, geometric mean (%CV)); 56.9 ng·h/mL in series [2] (rosuvastatin 10 mg plus AZD5718 200-mg tablet, fasted, n = 10, read-out: Rosuvastatin AUC0-inf, arithmetic mean (SD)); 50.5 ng·h/mL in series [2] (rosuvastatin 10 mg plus AZD5718 200-mg tablet, fasted, n = 10, read-out: Rosuvastatin AUC0-inf, geometric mean (%CV)). Further, the half-life is 16 h in series [2] (rosuvastatin 10 mg alone, fasted, n = 9, read-out: Rosuvastatin t1/2 lambda z, arithmetic mean (SD) (converted)); 14.7 h in series [2] (rosuvastatin 10 mg alone, fasted, n = 9, read-out: Rosuvastatin t1/2 lambda z, geometric mean (%CV) (converted)); 16.4 h in series [2] (rosuvastatin 10 mg plus AZD5718 200-mg tablet, fasted, n = 10, read-out: Rosuvastatin t1/2 lambda z, arithmetic mean (SD) (converted)); 16.5 h in series [2] (rosuvastatin 10 mg plus AZD5718 200-mg tablet, fasted, n = 10, read-out: Rosuvastatin t1/2 lambda z, geometric mean (%CV) (converted)). Besides, the AUC(0-t) is 54.2 ng·h/mL in series [2] (rosuvastatin 10 mg alone, fasted, n = 12, read-out: Rosuvastatin AUC0-last, arithmetic mean (SD)); 45.3 ng·h/mL in series [2] (rosuvastatin 10 mg alone, fasted, n = 12, read-out: Rosuvastatin AUC0-last, geometric mean (%CV)); 49.4 ng·h/mL in series [2] (rosuvastatin 10 mg plus AZD5718 200-mg tablet, fasted, read-out: Rosuvastatin AUC0-last, arithmetic mean (SD)); 43.5 ng·h/mL in series [2] (rosuvastatin 10 mg plus AZD5718 200-mg tablet, fasted, read-out: Rosuvastatin AUC0-last, geometric mean (%CV)). In addition, the Cmax in series [2] (rosuvastatin 10 mg alone, fasted, n = 12, read-out: Rosuvastatin Cmax, arithmetic mean (SD)) was determined as 5.56 ng/mL; in series [2] (rosuvastatin 10 mg alone, fasted, n = 12, read-out: Rosuvastatin Cmax, geometric mean (%CV)), 4.59 ng/mL; in series [2] (rosuvastatin 10 mg plus AZD5718 200-mg tablet, fasted, read-out: Rosuvastatin Cmax, arithmetic mean (SD)), 6.74 ng/mL; in series [2] (rosuvastatin 10 mg plus AZD5718 200-mg tablet, fasted, read-out: Rosuvastatin Cmax, geometric mean (%CV)) it was 5.74 ng/mL. Besides, in series [2] (rosuvastatin 10 mg alone, fasted, n = 12), the “Rosuvastatin tmax, median (range)” value was 5.00 (0.50‐6.00) h.
Turning to `C[C@H](C#Cc1ccc(Cc2ccc(F)cc2)s1)N(O)C(N)=O` [VIA‐2291], the “Left ventricular ejection fraction” value in series [3] (dose-dependent) is “improved left ventricular ejection fraction”. Further, in series [3] (phase 2), the “Appearance of new coronary lesions” value is given as “prevented the appearance of new coronary lesions”, the “Leukotriene B4 production” value was “reduced leukotriene B4 production” and the Noncalcified plaque volume entry was “lowered noncalcified plaque volume”.
Take `CC(c1cc2ccccc2s1)N(O)C(N)=O` (centres unmarked) [zileuton]: in series [4], the “Flow-mediated dilation in the brachial artery” value is listed as “improved flow‐mediated dilation” and the Leukotriene production result is on record as “reduced leukotriene production”.
For the molecule “canakinumab: anti-interleukin-1β antibody”, the “Hazard ratio, recurrent cardiovascular events vs placebo” value in series [5] (P = .021) is recorded as 0.85. In addition, the “Rate of recurrent cardiovascular events” value in series [5] (canakinumab together with statins, placebo and statins 4.50) was 3.90 events per 100 person‐years.

B1: evolocumab: proprotein convertase subtilisin/kexin type 9-neutralizing antibody (antibody, chains of the INN, looked up, V domains shown)
VH: EVQLVQSGAEVKKPGASVKVSCKASGYTLTSYGISWVRQAPGQGLEWMGWVSFYNGNTNYAQKLQGRGTMTTDPSTSTAYMELRSLRSDDTAVYYCARGYGMDVWGQGTTVTVSS
VL: ESALTQPASVSGSPGQSITISCTGTSSDVGGYNSVSWYQQHPGKAPKLMIYEVSNRPSGVSNRFSGSKSGNTASLTISGLQAEDEADYYCNSYTSTSMVFGGGTKLTVL
As for B1, in series [6] (P < .001), the “Hazard ratio, recurrent cardiovascular events vs placebo” value is 0.85. Further, the “LDL cholesterol level, median” value in series [6] (evolocumab together with statins) was 30 mg/dL. Besides, the “Rate of recurrent cardiovascular events” value in series [6] (evolocumab together with statins, placebo 11.3%) is 9.8%.
